This is an account of results in patent US4413005A, “Carbamate derivatives and insecticidal, miticidal or nematocidal compositions containing the same” (priority 1981, dated 1983).

Where two headings read alike, the source gives them in different places.

Data set [1] concerns tobacco cutworm (Spodoptera litura). The data set is described as follows: Mortality of third-instar larvae of tobacco cutworm on cabbage (Test Example 1). In kind it is in vivo. Particulars: 72 h. As for the experimental part:
Ten third-instar larvae of tobacco cutworm (Spodoptera litura) were placed on a cabbage (one-month-old seedling) planted in a pot, and a 50% emulsion of the compound to be tested was diluted to a specified concentration and applied to the leaves of the plant to fully wet them. The test compound of each specified concentration was tested on two pots.

Data set [2] has as its system green rice leafhopper (Nephotettix cincticeps). In words: Mortality of female adults of green rice leafhopper on paddy rice (Test Example 2). In kind it is in vivo. Particulars: 72 h. As for the experimental part: An emulsion of specified concentration was prepared from a 50% wettable powder of the compound to be tested and applied to the leaves of paddy rice (one-month-old seedlings) planted in a pot to fully wet the leaves. After the emulsion had been dried, the pot was covered with a net cage, into which 10 female adults of green rice leafhopper (Nephotettix cincticeps) were released. The compound of each specified concentration was tested on two pots.

The subject of data set [3] is house fly (Musca domestica). The data set is described as follows: Local application to house fly, LD50 by Probit method (Test Example 4). Type of data set: in vivo. Particulars: topical. As for the experimental part:
The compound to be tested was dissolved in a predetermined amount of acetone. The solution was diluted to various concentrations and locally applied to house fly (Musca domestica).

A short description of data set [4]: Acute oral toxicity in male mice, LD50 by Litchfield-Wilcoxon method (Test Example 5). Conditions: mouse, in vivo, mortality on the seventh day. As for the experimental part: Compounds of this invention were tested on male mice for acute toxicity by oral administration.

The mortality is the share of the test organisms that died. In data set [1], `CNC(=O)Oc1cccc2ccccc12` [1-Naphthyl-N--methyl-carbamate, reference compound] returned a mortality at 500 ppm of 60%, a mortality at 1000 ppm of 80% and a mortality at 2000 ppm of 100%.

For orientation: LD50 means the dose expected to kill half of the subjects tested. Consider `CNC(=O)Oc1ccccc1OC(C)C` [2-Isopropoxyphenyl-N--methyl-carbamate, reference compound], for which the mortality at 200 ppm in data set [2] (200 ppm active ingredient, from 50% wettable powder, three days later, read-out: Mortality) was determined as 0%. In data set [2] (400 ppm active ingredient, from 50% wettable powder, three days later, read-out: Mortality), the mortality at 400 ppm amounted to 0%. The mortality at 800 ppm in data set [2] (800 ppm active ingredient, from 50% wettable powder, three days later, read-out: Mortality) worked out at 0%. Further, the LD50 in data set [3] (house fly, locally applied in acetone, mortality 24 hours later, Probit method, read-out: LD50) was 22.5 mg/kg.

Take `CN(SN(CC#N)CC#N)C(=O)Oc1cccc2c1OC(C)(C)C2` [Example 1, 2,3-dihydro-2,2-dimethylbenzofuran-7-yl N-[N,N-bis(cyanomethyl)aminosulfenyl]-N-methyl-carbamate]: in data set [2], the mortality at 200 ppm was determined as 50%, the mortality at 400 ppm stood at 85% and the mortality at 800 ppm turned out to be 100%. For the same compound, in data set [1], the mortality at 500 ppm was found to be 65%, the mortality at 1000 ppm turned out to be 80% and the mortality at 2000 ppm turned out to be 100%. The 50% lethal dose (LD50) in data set [3] (24 h) is 21.3 mg/kg. In addition, the 50% lethal dose (LD50) at 168 h in data set [4] came to 58 mg/kg.

Regarding `CCOC(=O)CN(CC(=O)OCC)SN(C)C(=O)Oc1cccc2c1OC(C)(C)C2` [Example 2, 2,3-dihydro-2,2-dimethylbenzofuran-7-yl N-[N,N-bis(ethoxycarbonylmethyl)aminosulfenyl]-N-methylcarbamate], in data set [2], the mortality at 200 ppm amounted to 45%, the mortality at 400 ppm was found to be 85% and the mortality at 800 ppm turned out to be 100%. In data set [1], the mortality at 500 ppm was found to be 60%, the mortality at 1000 ppm amounted to 70% and the mortality at 2000 ppm worked out at 100%. In addition, the LD50 in data set [3] (24 h) worked out at 58.8 mg/kg. The LD50 at 168 h in data set [4] worked out at 140 mg/kg.

In data set [2], `COC(=O)CN(CC(=O)OC)SN(C)C(=O)Oc1cccc2c1OC(C)(C)C2` [Example 3] showed a mortality at 200 ppm of 45%, a mortality at 400 ppm of 85% and a mortality at 800 ppm of 100%. In data set [1], this compound came in with a mortality at 500 ppm of 65%, a mortality at 1000 ppm of 80% and a mortality at 2000 ppm of 100%. In data set [3] (24 h), this compound showed an LD50 of 40 mg/kg. The same compound came in with a 50% lethal dose (LD50) at 168 h in data set [4] of 145 mg/kg.

As to `CC(C)OC(=O)CN(CC(=O)OC(C)C)SN(C)C(=O)Oc1cccc2c1OC(C)(C)C2` [Example 4], in data set [2], the mortality at 200 ppm was 40%, the mortality at 400 ppm was 70% and the mortality at 800 ppm was 100%. Further, in data set [1], the mortality at 500 ppm turned out to be 60%, the mortality at 1000 ppm worked out at 70% and the mortality at 2000 ppm was 100%. The compound further showed a 50% lethal dose (LD50) in data set [3] (24 h) of 28.9 mg/kg. Moreover, the LD50 at 168 h in data set [4] turned out to be 122 mg/kg.

In data set [2], `CN(SN(CC(=O)OC1CCCCC1)CC(=O)OC1CCCCC1)C(=O)Oc1cccc2c1OC(C)(C)C2` [Example 5] returned a mortality at 200 ppm of 45%, a mortality at 400 ppm of 80% and a mortality at 800 ppm of 100%. In data set [1], this compound yielded a mortality at 500 ppm of 65%, a mortality at 1000 ppm of 80% and a mortality at 2000 ppm of 100%. Also, in data set [3] (24 h), the LD50 was 75.6 mg/kg. The 50% lethal dose (LD50) at 168 h in data set [4] is 90 mg/kg.

As for `CCOC(=O)CCN(CCC(=O)OCC)SN(C)C(=O)Oc1cccc2c1OC(C)(C)C2` [Example 6, 2,3-dihydro-2,2-dimethylbenzofuran-7-yl N-[N,N-bis(ethoxycarbonylethyl)aminosulfenyl]-N-methylcarbamate], in data set [2], the mortality at 200 ppm was 55%, the mortality at 400 ppm stood at 75% and the mortality at 800 ppm turned out to be 95%. In data set [1], this compound yielded a mortality at 500 ppm of 60%, a mortality at 1000 ppm of 75% and a mortality at 2000 ppm of 100%. Also, the LD50 in data set [3] (24 h) is 38.3 mg/kg. In data set [4], this compound registered a 50% lethal dose (LD50) at 168 h of 135 mg/kg.

As to `CN(SN(CCC#N)CCC#N)C(=O)Oc1cccc2c1OC(C)(C)C2` [Example 7, 2,3-dihydro-2,2-dimethylbenzofuran-7-yl N-[N,N-bis(cyanoethyl)aminosulfenyl]-N-methyl-carbamate], in data set [2], the mortality at 200 ppm was found to be 50%, the mortality at 400 ppm was 70% and the mortality at 800 ppm came out at 90%. In data set [1], this compound yielded a mortality at 500 ppm of 60%, a mortality at 1000 ppm of 75% and a mortality at 2000 ppm of 100%. The LD50 in data set [3] (24 h) turned out to be 54 mg/kg. The 50% lethal dose (LD50) at 168 h in data set [4] was determined as 75 mg/kg.

For the compound `CCOC(=O)CN(CCC#N)SN(C)C(=O)Oc1cccc2c1OC(C)(C)C2` [Example 8], in data set [2], the mortality at 200 ppm came out at 60%, the mortality at 400 ppm came to 85% and the mortality at 800 ppm amounted to 95%. Moreover, in data set [1], the mortality at 500 ppm came to 75%, the mortality at 1000 ppm was 85% and the mortality at 2000 ppm was 100%. Further, the LD50 in data set [3] (24 h) was 24.6 mg/kg. In data set [4], this compound registered a 50% lethal dose (LD50) at 168 h of 105 mg/kg.

In data set [2], `CCOC(=O)CCN(CC(=O)OCC)SN(C)C(=O)Oc1cccc2c1OC(C)(C)C2` [Example 9] came in with a mortality at 200 ppm of 60%, a mortality at 400 ppm of 90% and a mortality at 800 ppm of 100%. In addition, in data set [1], the mortality at 500 ppm was determined as 80%, the mortality at 1000 ppm worked out at 90% and the mortality at 2000 ppm came to 100%. In data set [3] (24 h), this compound came in with an LD50 of 31.7 mg/kg. In data set [4], this compound gave a 50% lethal dose (LD50) at 168 h of 158 mg/kg.

With `CCOC(=O)CCCN(CC(=O)OCC)SN(C)C(=O)Oc1cccc2c1OC(C)(C)C2` [Example 10], in data set [2], the mortality at 200 ppm worked out at 60%, the mortality at 400 ppm came to 90% and the mortality at 800 ppm stood at 100%. In data set [1], the mortality at 500 ppm turned out to be 75%, the mortality at 1000 ppm was determined as 85% and the mortality at 2000 ppm amounted to 100%. Further, the LD50 in data set [3] (24 h) amounted to 46 mg/kg. In data set [4], this compound registered a 50% lethal dose (LD50) at 168 h of 115 mg/kg.

With `CCOC(=O)CN(SN(C)C(=O)Oc1cccc2c1OC(C)(C)C2)C(CC)C(=O)OCC` (centres unmarked) [Example 11], in data set [2], the mortality at 200 ppm was found to be 55%, the mortality at 400 ppm is 80% and the mortality at 800 ppm was found to be 95%. In data set [1], this compound gave a mortality at 500 ppm of 70%, a mortality at 1000 ppm of 80% and a mortality at 2000 ppm of 100%. Also, the LD50 in data set [3] (24 h) is 93.9 mg/kg. The compound also came in with an LD50 at 168 h in data set [4] of 93 mg/kg.

In data set [2], `CCCCN(CC(=O)OCC)SN(C)C(=O)Oc1cccc2c1OC(C)(C)C2` [Example 12, 2,3-dihydro-2,2-dimethylbenzofuran-7-yl N-(N-butyl-N-ethoxycarbonylmethylaminosulfenyl)-N-methyl-carbamate] yielded a mortality at 200 ppm of 65%, a mortality at 400 ppm of 90% and a mortality at 800 ppm of 100%. In data set [1], the mortality at 500 ppm turned out to be 75%, the mortality at 1000 ppm turned out to be 90% and the mortality at 2000 ppm was 100%. Moreover, the LD50 in data set [3] (24 h) worked out at 16.7 mg/kg. In data set [4], this compound returned an LD50 at 168 h of 125 mg/kg.

In data set [2], `CCOC(=O)CN(SN(C)C(=O)Oc1cccc2c1OC(C)(C)C2)c1ccccc1` [Example 13, 2,3-dihydro-2,2-dimethylbenzofuran-7-yl N-(N-phenyl-N-ethoxycarbonylmethylaminosulfenyl)-N-methylcarbamate] registered a mortality at 200 ppm of 65%, a mortality at 400 ppm of 90% and a mortality at 800 ppm of 100%. For the same compound, in data set [1], the mortality at 500 ppm amounted to 75%, the mortality at 1000 ppm is 90% and the mortality at 2000 ppm is 100%. Also, the 50% lethal dose (LD50) in data set [3] (24 h) is 12.5 mg/kg. The same compound gave an LD50 at 168 h in data set [4] of 115 mg/kg.

In data set [2], `CCOC(=O)CN(C)SN(C)C(=O)Oc1cccc2c1OC(C)(C)C2` [Example 14, 2,3-Dihydro-2,2-dimethylbenzofuran-7-yl N-(N-methyl-N-ethoxycarbonylmethylaminosulfenyl)-N-methylcarbamate] displayed a mortality at 200 ppm of 65%, a mortality at 400 ppm of 90% and a mortality at 800 ppm of 100%. In data set [1], the mortality at 500 ppm worked out at 75%, the mortality at 1000 ppm was 90% and the mortality at 2000 ppm worked out at 100%. Further, the median lethal dose (LD50) in data set [3] (24 h) amounted to 9.9 mg/kg. In addition, the median lethal dose (LD50) at 168 h in data set [4] amounted to 120 mg/kg.

In data set [2], `CCOC(=O)CN(SN(C)C(=O)Oc1cccc2c1OC(C)(C)C2)C(C)C` [Example 15] gave a mortality at 200 ppm of 65%, a mortality at 400 ppm of 90% and a mortality at 800 ppm of 100%. Besides, in data set [1], the mortality at 500 ppm is 75%, the mortality at 1000 ppm is 90% and the mortality at 2000 ppm was found to be 100%. Further, the median lethal dose (LD50) in data set [3] (24 h) was 33 mg/kg. This compound also displayed a 50% lethal dose (LD50) at 168 h in data set [4] of 110 mg/kg.

As to `CCOC(=O)CN(SN(C)C(=O)Oc1cccc2c1OC(C)(C)C2)C(C)CC` (centres unmarked) [Example 16], in data set [2], the mortality at 200 ppm turned out to be 60%, the mortality at 400 ppm turned out to be 80% and the mortality at 800 ppm came out at 100%. Moreover, in data set [1], the mortality at 500 ppm was determined as 65%, the mortality at 1000 ppm stood at 85% and the mortality at 2000 ppm was 100%. The compound also had a 50% lethal dose (LD50) in data set [3] (24 h) of 44.4 mg/kg. For the same compound, the median lethal dose (LD50) at 168 h in data set [4] was 110 mg/kg.

In data set [2], `CCCCCCCCN(CC(=O)OCC)SN(C)C(=O)Oc1cccc2c1OC(C)(C)C2` [Example 17] came in with a mortality at 200 ppm of 55%, a mortality at 400 ppm of 75% and a mortality at 800 ppm of 95%. In data set [1], this compound gave a mortality at 500 ppm of 60%, a mortality at 1000 ppm of 80% and a mortality at 2000 ppm of 100%. Besides, the median lethal dose (LD50) in data set [3] (24 h) came to 42.3 mg/kg. The compound further came in with a 50% lethal dose (LD50) at 168 h in data set [4] of 69 mg/kg.
